Experimental data published in patent publication US8466132B2, “Substituted tetracycline compounds” (Paratek Pharmaceuticals, Inc., priority 2004, dated 2013).
Each block holds one compound with its values, some of them ahead of it.

Tests used:
Type in all cases: cell-based
[1] = system: S. pneumoniae 157E; assay: In vitro minimum inhibitory concentration (MIC) assay, S. pneumoniae; parameters: key: Compounds which showed superior inhibition of S. aureus, S. pseumoniae and E. coli are indicated by “***,”; compounds which showed very good or good inhibition of S. aureus, S. pseumoniae and E. coli are indicated by “**” or “*” respectively; compounds which showed very good or good inhibition of S. aureus, S. pseumoniae and E. coli are indicated by “**” or “*” respectively; conditions: broth microdilution in CAMHB, 35° C., approximately 18 hour
Description: (§1) The following assay is used to determine the efficacy of the tetracycline compounds against common bacteria. 2 mg of each compound is dissolved in 100 μl of DMSO. The solution is then added to cation-adjusted Mueller Hinton broth (CAMHB), which results in a final compound concentration of 200 μg per ml. The tetracycline compound solutions are diluted to 50 μL volumes, with a test compound concentration of 0.098 μg/ml. Optical density (OD) determinations are made from fresh log-phase broth cultures of the test strains. Dilutions are made to achieve a final cell density of 1×10^6 CFU/ml. At OD=1, cell densities for different genera should be approximately:
(§2) 50 μl of the cell suspensions are added to each well of microtiter plates. The final cell density should be approximately 5×10^5 CFU/ml. These plates are incubated at 35° C. in an ambient air incubator for approximately 18 hour. The plates are read with a microplate reader and are visually inspected when necessary. The MIC is defined as the lowest concentration of the tetracycline compound that inhibits growth.
(§3) Table 3 gives the MIC (μg/mL) of selected substituted tetracycline compounds against S. aureus, S. pseuimoniae, and E. coli.

[2] = system: S. aureus RN450; assay: In vitro minimum inhibitory concentration (MIC) assay, S. aureus; parameters: key: Compounds which showed superior inhibition of S. aureus, S. pseumoniae and E. coli are indicated by “***,”; compounds which showed very good or good inhibition of S. aureus, S. pseumoniae and E. coli are indicated by “**” or “*” respectively; compounds which showed very good or good inhibition of S. aureus, S. pseumoniae and E. coli are indicated by “**” or “*” respectively; conditions: broth microdilution in CAMHB, 35° C., approximately 18 hour
Description: as §1, §2, §3

[3] = system: E. coli MG 1655; assay: In vitro minimum inhibitory concentration (MIC) assay, E. coli; parameters: key: Compounds which showed superior inhibition of S. aureus, S. pseumoniae and E. coli are indicated by “***,”; compounds which showed very good or good inhibition of S. aureus, S. pseumoniae and E. coli are indicated by “**” or “*” respectively; compounds which showed very good or good inhibition of S. aureus, S. pseumoniae and E. coli are indicated by “**” or “*” respectively; conditions: broth microdilution in CAMHB, 35° C., approximately 18 hour
Description: as §1, §2, §3

[4] = in vitro
Description: COS-1 and CHO-K1 cell suspensions were prepared, seeded into 96-well tissue culture treated black-walled microtiter plates (density determined by cell line), and incubated overnight at 37° C., in 5% CO2 and approximately 95% humidity. The following day, serial dilutions of drug were prepared under sterile conditions and transferred to cell plates. Cell/Drug plates were incubated under the above conditions for 24 hours. Following the incubation period, media/drug was aspirated and 50 μL of Resazurin (0.042 mg/ml in PBS w/Ca and Mg) was added. The plates were then incubated under the above conditions for 2 hours and then in the dark at room temperature for an additional 30 minutes. Fluorescence measurements were taken (excitation 535 nm, emission 590 nm). The IC50 (concentration of drug causing 50% growth inhibition) was then calculated.

SMILES: CC(=O)Nc1ccc(-c2cc(N(C)C)c3c(c2O)C(=O)C2=C(O)[C@]4(O)C(=O)C(C(N)=O)=C(O)[C@@H](N(C)C)[C@@H]4C[C@@H]2C3)cn1
Median MIC for S. pneumoniae 157E [1]: ***
Median MIC for S. aureus RN450 [2]: ***
Median MIC for E. coli MG 1655 [3]: *

SMILES: CN(C)c1cc(-c2ccc(C(=O)O)s2)c(O)c2c1C[C@H]1C[C@H]3[C@H](N(C)C)C(O)=C(C(N)=O)C(=O)[C@@]3(O)C(O)=C1C2=O
Median MIC for S. pneumoniae 157E [1]: *
Median MIC for S. aureus RN450 [2]: *
Median MIC for E. coli MG 1655 [3]: *

SMILES: CC(=O)c1cccc(-c2cc(N(C)C)c3c(c2O)C(=O)C2=C(O)[C@]4(O)C(=O)C(C(N)=O)=C(O)[C@@H](N(C)C)[C@@H]4C[C@@H]2C3)c1
Median MIC for S. pneumoniae 157E [1]: ***
Median MIC for S. aureus RN450 [2]: ***
Median MIC for E. coli MG 1655 [3]: *

SMILES: CCONC(=O)c1cc(N(C)C)c2c(c1O)C(=O)C1=C(O)[C@]3(O)C(=O)C(C(N)=O)=C(O)[C@@H](N(C)C)[C@@H]3C[C@@H]1C2
Median MIC for S. pneumoniae 157E [1]: ***
Median MIC for S. aureus RN450 [2]: *
Median MIC for E. coli MG 1655 [3]: *

SMILES: C[C@H]1c2cccc(O)c2C(=O)C2=C(O)[C@]3(O)C(=O)C(C(N)=O)=C(O)[C@@H](N(C)C)[C@@H]3[C@@H](O)[C@@H]21 [doxycycline, Doxycycline]
IC50 at 24 h [4]: > 25 µg/mL

SMILES: CN(C)c1cc(-c2ccc(C#N)nc2)c(O)c2c1C[C@H]1C[C@H]3[C@H](N(C)C)C(O)=C(C(N)=O)C(=O)[C@@]3(O)C(O)=C1C2=O
Median MIC for S. pneumoniae 157E [1]: ***
Median MIC for S. aureus RN450 [2]: ***
Median MIC for E. coli MG 1655 [3]: *

SMILES: COCC#Cc1cc(N(C)C)c2c(c1O)C(=O)C1=C(O)[C@]3(O)C(=O)C(C(N)=O)=C(O)[C@@H](N(C)C)[C@@H]3C[C@@H]1C2
Median MIC for S. pneumoniae 157E [1]: ***
Median MIC for S. aureus RN450 [2]: ***
Median MIC for E. coli MG 1655 [3]: *

SMILES: CN(C)c1cc(C(=O)N2CCCCCC2)c(O)c2c1C[C@H]1C[C@H]3[C@H](N(C)C)C(O)=C(C(N)=O)C(=O)[C@@]3(O)C(O)=C1C2=O
Median MIC for S. pneumoniae 157E [1]: *
Median MIC for S. aureus RN450 [2]: **
Median MIC for E. coli MG 1655 [3]: *

SMILES: CN(C)c1cc(C#N)c(O)c2c1C[C@H]1C[C@H]3[C@H](N(C)C)C(O)=C(C(N)=O)C(=O)[C@@]3(O)C(O)=C1C2=O
Median MIC for S. pneumoniae 157E [1]: ***
Median MIC for S. aureus RN450 [2]: ***
Median MIC for E. coli MG 1655 [3]: **

SMILES: CN(C)c1cc(-c2cnccn2)c(O)c2c1C[C@H]1C[C@H]3[C@H](N(C)C)C(O)=C(C(N)=O)C(=O)[C@@]3(O)C(O)=C1C2=O
Median MIC for S. pneumoniae 157E [1]: ***
Median MIC for S. aureus RN450 [2]: ***
Median MIC for E. coli MG 1655 [3]: *

SMILES: CONC(=O)c1cc(N(C)C)c2c(c1O)C(=O)C1=C(O)[C@]3(O)C(=O)C(C(N)=O)=C(O)[C@@H](N(C)C)[C@@H]3C[C@@H]1C2
Median MIC for S. pneumoniae 157E [1]: *
Median MIC for S. aureus RN450 [2]: *
Median MIC for E. coli MG 1655 [3]: *

SMILES: CCCN(CC)C(=O)c1cc(N(C)C)c2c(c1O)C(=O)C1=C(O)[C@]3(O)C(=O)C(C(N)=O)=C(O)[C@@H](N(C)C)[C@@H]3C[C@@H]1C2
Median MIC for S. pneumoniae 157E [1]: *
Median MIC for S. aureus RN450 [2]: *
Median MIC for E. coli MG 1655 [3]: *

SMILES: CN(C)c1cc(C#N)c(O)c2c1C[C@H]1C[C@H]3[C@@H](N(C)C)C(O)=C(C(N)=O)C(=O)C3(O)C(O)=C1C2=O (some centres unmarked)
Median MIC for S. pneumoniae 157E [1]: ***
Median MIC for S. aureus RN450 [2]: ***
Median MIC for E. coli MG 1655 [3]: *

SMILES: CCNC(=O)c1cc(N(C)C)c2c(c1O)C(=O)C1=C(O)[C@]3(O)C(=O)C(C(N)=O)=C(O)[C@@H](N(C)C)[C@@H]3C[C@@H]1C2
Median MIC for S. pneumoniae 157E [1]: *
Median MIC for S. aureus RN450 [2]: *
Median MIC for E. coli MG 1655 [3]: *

More lines, now with the values ahead:

Median MIC for S. pneumoniae 157E [1]: **
Median MIC for S. aureus RN450 [2]: ***
Median MIC for E. coli MG 1655 [3]: *
SMILES: CN(C)c1cc(-c2nccs2)c(O)c2c1C[C@H]1C[C@H]3[C@H](N(C)C)C(O)=C(C(N)=O)C(=O)[C@@]3(O)C(O)=C1C2=O

IC50 at 24 h [4]: > 25 µg/mL
SMILES: CN(C)c1ccc(O)c2c1C[C@H]1C[C@H]3[C@H](N(C)C)C(O)=C(C(N)=O)C(=O)[C@@]3(O)C(O)=C1C2=O [minocycline, Minocycline]

Median MIC for S. pneumoniae 157E [1]: *
Median MIC for S. aureus RN450 [2]: *
Median MIC for E. coli MG 1655 [3]: *
SMILES: CNC(=O)c1cc(N(C)C)c2c(c1O)C(=O)C1=C(O)[C@]3(O)C(=O)C(C(N)=O)=C(O)[C@@H](N(C)C)[C@@H]3C[C@@H]1C2

Median MIC for S. pneumoniae 157E [1]: *
Median MIC for S. aureus RN450 [2]: *
Median MIC for E. coli MG 1655 [3]: *
SMILES: COCCN(C)C(=O)c1cc(N(C)C)c2c(c1O)C(=O)C1=C(O)[C@]3(O)C(=O)C(C(N)=O)=C(O)[C@@H](N(C)C)[C@@H]3C[C@@H]1C2

Median MIC for S. pneumoniae 157E [1]: ***
Median MIC for S. aureus RN450 [2]: ***
Median MIC for E. coli MG 1655 [3]: *
SMILES: CN(C)c1cc(C(=O)Nc2ccccc2)c(O)c2c1C[C@H]1C[C@H]3[C@H](N(C)C)C(O)=C(C(N)=O)C(=O)[C@@]3(O)C(O)=C1C2=O

Median MIC for S. pneumoniae 157E [1]: **
Median MIC for S. aureus RN450 [2]: ***
Median MIC for E. coli MG 1655 [3]: *
SMILES: CN(C)c1cc(-c2cc[nH]n2)c(O)c2c1C[C@H]1C[C@H]3[C@H](N(C)C)C(O)=C(C(N)=O)C(=O)[C@@]3(O)C(O)=C1C2=O

Median MIC for S. pneumoniae 157E [1]: ***
Median MIC for S. aureus RN450 [2]: ***
Median MIC for E. coli MG 1655 [3]: *
SMILES: CN(C)c1cccc(-c2cc(N(C)C)c3c(c2O)C(=O)C2=C(O)[C@]4(O)C(=O)C(C(N)=O)=C(O)[C@H](N(C)C)[C@@H]4C[C@@H]2C3)c1

Median MIC for S. pneumoniae 157E [1]: **
Median MIC for S. aureus RN450 [2]: ***
Median MIC for E. coli MG 1655 [3]: *
SMILES: CN(C)c1cc(-c2cccc(C(N)=O)c2)c(O)c2c1C[C@H]1C[C@H]3[C@H](N(C)C)C(O)=C(C(N)=O)C(=O)[C@@]3(O)C(O)=C1C2=O

Median MIC for S. pneumoniae 157E [1]: ***
Median MIC for S. aureus RN450 [2]: ***
Median MIC for E. coli MG 1655 [3]: *
SMILES: CN(C)c1cc(-c2cncnc2)c(O)c2c1C[C@H]1C[C@H]3[C@H](N(C)C)C(O)=C(C(N)=O)C(=O)[C@@]3(O)C(O)=C1C2=O

Median MIC for S. pneumoniae 157E [1]: ***
Median MIC for S. aureus RN450 [2]: ***
Median MIC for E. coli MG 1655 [3]: *
SMILES: CN(C)c1cc(-c2ccncc2)c(O)c2c1C[C@H]1C[C@H]3[C@H](N(C)C)C(O)=C(C(N)=O)C(=O)[C@@]3(O)C(O)=C1C2=O

Median MIC for S. pneumoniae 157E [1]: ***
Median MIC for S. aureus RN450 [2]: ***
Median MIC for E. coli MG 1655 [3]: *
SMILES: CN(C)c1cc(-c2cnoc2)c(O)c2c1C[C@H]1C[C@H]3[C@H](N(C)C)C(O)=C(C(N)=O)C(=O)[C@@]3(O)C(O)=C1C2=O
